Experimental data reported in paper PMC5742231 (Frontiers in Chemistry, 2017).

Key:
[1] = test system: Bacteriophage ΔTOX:GFP (ϕΔTOX:GFP); format: cell-based
S. aureus = details: cited from earlier work
[2] = test system: different bacterial strains; details: cited from earlier work

| Sequence | bacteriophage inactivation activity (in words) [1] | phages inactivated [1] | other results |
| --- | --- | --- | --- |
| GLLKKWLKKWKEFKRIVGY [Peptide 2] | lowest inactivation activity | – | shape of phage neutralizing activity vs. concentration curve [1]: bell curve shaped behavior |
| GLLRKWGKKWKEFLRRVWK [Peptide 6.2] | – | ~100% | shape of phage neutralizing activity vs. concentration curve [1]: bell curve shaped behavior |
| ILRWPWWPWRRK [Omiganan, reference compound] | no inactivation activity | – | antimicrobial activity against S. aureus (S. aureus): activity against S. aureus |
| MVVFSVPKFKSTVAKLLSSA [Random peptide, reference compound] | no inactivation activity | – | antimicrobial activity [2]: no antimicrobial activity |
| RIVQRIAKWAKKWYKAGK [Peptide 8.1] | lowest inactivation activity | – | – |
| RIVQRIKKWLLKWKKLGY [Peptide 5] | – | ~100% | – |
| RIVQRILKWLKKWYKLGK [Peptide 8] | – | ~100% | – |
